Reference: ChEMBL document CHEMBL1201862, “PubChem BioAssay data set” (2004)
The source made the active and inactive calls.

Key:
[1] = biological target: T1, Protein RecA (Mycobacterium tuberculosis, UniProt P9WHJ3); experiment: Fluorescence Cell-Free Homogeneous Dose Retest to Identify Inhibitors of RecA-Intein Splicing Activity. [Related pubchem assays (depositor defined):AID2097, AID2223, AID489010, AID492950]; assay type: functional
T1 sequence (P9WHJ3 whole entry): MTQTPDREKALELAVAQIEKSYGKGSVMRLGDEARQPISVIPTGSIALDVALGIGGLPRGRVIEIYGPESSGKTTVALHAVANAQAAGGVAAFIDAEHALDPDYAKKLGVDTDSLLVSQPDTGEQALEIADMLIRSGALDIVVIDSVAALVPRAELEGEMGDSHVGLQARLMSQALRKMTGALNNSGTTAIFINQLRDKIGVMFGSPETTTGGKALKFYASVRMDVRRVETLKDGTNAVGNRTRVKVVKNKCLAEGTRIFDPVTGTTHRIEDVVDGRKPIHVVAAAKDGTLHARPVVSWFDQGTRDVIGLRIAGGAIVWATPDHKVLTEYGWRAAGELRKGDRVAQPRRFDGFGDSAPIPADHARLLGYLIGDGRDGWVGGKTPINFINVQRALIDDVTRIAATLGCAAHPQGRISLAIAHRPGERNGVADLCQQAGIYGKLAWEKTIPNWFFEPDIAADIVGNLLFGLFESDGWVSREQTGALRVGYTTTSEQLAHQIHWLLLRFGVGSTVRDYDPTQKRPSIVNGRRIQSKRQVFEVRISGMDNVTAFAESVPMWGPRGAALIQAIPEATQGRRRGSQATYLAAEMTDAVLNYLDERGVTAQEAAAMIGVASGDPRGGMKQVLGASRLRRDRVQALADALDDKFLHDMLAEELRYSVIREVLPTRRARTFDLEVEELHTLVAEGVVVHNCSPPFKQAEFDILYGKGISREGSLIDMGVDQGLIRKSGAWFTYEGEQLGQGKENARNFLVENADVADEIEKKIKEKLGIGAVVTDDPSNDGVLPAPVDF

[2] = biological target: T2, Replicative DNA helicase DnaB (Mycobacterium tuberculosis, UniProt P9WMR3); experiment: DnaB intein splicing inhibitors, dose response, biochemical, cell-free fluorescence (AID 449749); assay type: functional
T2 sequence (P9WMR3 whole entry): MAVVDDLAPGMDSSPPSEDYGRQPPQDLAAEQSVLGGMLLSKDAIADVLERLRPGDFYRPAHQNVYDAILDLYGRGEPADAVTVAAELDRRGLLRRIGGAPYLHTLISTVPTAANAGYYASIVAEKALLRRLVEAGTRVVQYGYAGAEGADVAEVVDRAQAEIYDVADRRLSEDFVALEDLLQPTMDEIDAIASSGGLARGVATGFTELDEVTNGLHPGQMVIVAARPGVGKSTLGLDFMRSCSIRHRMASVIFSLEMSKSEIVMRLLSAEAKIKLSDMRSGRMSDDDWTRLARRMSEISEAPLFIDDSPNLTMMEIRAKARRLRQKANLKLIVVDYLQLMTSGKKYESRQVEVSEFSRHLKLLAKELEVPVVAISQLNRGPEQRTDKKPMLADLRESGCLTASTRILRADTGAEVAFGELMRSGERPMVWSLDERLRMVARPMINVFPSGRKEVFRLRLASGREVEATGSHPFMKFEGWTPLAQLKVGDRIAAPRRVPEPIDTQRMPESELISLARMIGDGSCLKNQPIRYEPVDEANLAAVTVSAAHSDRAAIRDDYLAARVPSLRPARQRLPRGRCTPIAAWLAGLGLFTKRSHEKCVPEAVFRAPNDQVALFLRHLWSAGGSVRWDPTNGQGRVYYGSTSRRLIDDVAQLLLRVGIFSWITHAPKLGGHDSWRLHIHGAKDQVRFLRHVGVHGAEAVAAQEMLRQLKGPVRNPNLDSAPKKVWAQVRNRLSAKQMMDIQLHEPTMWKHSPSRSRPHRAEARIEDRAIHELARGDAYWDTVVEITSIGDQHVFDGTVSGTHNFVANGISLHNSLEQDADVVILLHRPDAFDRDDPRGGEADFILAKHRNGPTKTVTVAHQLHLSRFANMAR

[3] = biological target: T3, Heat shock factor protein 1 (Mus musculus, UniProt P38532); experiment: HSF1 potentiators in luciferase reporter cells, confirmation, cell-based, NIH3T3, luminescence, dose retest (AID 435004); assay type: functional;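 also: stress induced by proteasome inhibitor MG132 added 30 min after compound; luciferase reporter driven by HSF1 response element in NIH3T3 cells; actives raise luminescence as potentiators of the MG132 stress response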
T3 sequence (P38532 whole entry): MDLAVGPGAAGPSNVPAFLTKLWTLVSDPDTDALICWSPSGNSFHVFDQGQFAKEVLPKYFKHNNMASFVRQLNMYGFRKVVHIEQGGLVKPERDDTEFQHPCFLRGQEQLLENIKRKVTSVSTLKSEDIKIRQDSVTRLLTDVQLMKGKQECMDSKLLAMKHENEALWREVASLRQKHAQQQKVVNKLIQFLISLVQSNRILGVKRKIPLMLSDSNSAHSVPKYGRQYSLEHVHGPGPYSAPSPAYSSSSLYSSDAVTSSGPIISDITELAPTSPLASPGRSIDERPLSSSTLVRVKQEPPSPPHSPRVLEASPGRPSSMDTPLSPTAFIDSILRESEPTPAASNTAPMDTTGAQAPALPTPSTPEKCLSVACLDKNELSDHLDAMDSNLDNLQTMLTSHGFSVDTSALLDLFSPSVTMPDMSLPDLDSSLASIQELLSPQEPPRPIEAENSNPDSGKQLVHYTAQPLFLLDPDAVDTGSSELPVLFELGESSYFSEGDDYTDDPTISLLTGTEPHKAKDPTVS

[4] = biological target: Cytochrome P450 2C19 (Homo sapiens, UniProt P33261); experiment: Cytochrome panel assay with activity outcomes. Panel member name: p450-cyp2c19 Compounds with AC50 equal or less than 10 uM are considered active; assay type: functional; conditions: read-out: AC50
Sequence of Cytochrome P450 2C19 (P33261 whole entry): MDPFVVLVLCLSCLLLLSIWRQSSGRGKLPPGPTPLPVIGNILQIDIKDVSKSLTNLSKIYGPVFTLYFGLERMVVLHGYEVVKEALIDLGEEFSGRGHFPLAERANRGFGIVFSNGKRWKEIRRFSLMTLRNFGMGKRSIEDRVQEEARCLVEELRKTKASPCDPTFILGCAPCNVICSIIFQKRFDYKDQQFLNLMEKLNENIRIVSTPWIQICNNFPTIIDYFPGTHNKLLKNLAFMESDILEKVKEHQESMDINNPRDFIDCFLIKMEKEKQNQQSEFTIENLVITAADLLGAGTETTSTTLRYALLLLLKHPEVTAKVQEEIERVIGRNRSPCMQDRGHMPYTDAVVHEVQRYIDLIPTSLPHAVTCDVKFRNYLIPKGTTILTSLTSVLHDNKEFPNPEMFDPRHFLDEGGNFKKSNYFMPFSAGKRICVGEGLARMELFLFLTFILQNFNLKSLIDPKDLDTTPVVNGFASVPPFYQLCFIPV

[5] = biological target: Cytochrome P450 2D6 (Homo sapiens, UniProt P10635);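 also: CYP2D6 member of a cytochrome P450 panel assay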
Sequence of Cytochrome P450 2D6 (P10635 whole entry): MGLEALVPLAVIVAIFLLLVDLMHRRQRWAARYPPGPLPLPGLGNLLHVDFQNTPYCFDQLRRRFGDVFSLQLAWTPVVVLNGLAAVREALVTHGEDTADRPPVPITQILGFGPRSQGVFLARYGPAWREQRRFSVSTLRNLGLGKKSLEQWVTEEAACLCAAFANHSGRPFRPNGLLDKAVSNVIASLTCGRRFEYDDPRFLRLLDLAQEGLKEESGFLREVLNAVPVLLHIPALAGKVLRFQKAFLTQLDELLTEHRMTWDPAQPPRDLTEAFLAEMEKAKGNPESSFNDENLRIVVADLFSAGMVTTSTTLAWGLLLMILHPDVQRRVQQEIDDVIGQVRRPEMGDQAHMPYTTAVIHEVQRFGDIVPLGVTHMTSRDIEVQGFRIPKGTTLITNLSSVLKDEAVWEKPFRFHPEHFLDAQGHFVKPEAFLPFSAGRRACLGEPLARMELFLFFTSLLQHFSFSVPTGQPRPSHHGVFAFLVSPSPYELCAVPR

[6] = biological target: Cytochrome P450 3A4 (Homo sapiens, UniProt P08684);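 also: CYP3A4 tested as one member of a cytochrome P450 panel screen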
Sequence of Cytochrome P450 3A4 (P08684 whole entry): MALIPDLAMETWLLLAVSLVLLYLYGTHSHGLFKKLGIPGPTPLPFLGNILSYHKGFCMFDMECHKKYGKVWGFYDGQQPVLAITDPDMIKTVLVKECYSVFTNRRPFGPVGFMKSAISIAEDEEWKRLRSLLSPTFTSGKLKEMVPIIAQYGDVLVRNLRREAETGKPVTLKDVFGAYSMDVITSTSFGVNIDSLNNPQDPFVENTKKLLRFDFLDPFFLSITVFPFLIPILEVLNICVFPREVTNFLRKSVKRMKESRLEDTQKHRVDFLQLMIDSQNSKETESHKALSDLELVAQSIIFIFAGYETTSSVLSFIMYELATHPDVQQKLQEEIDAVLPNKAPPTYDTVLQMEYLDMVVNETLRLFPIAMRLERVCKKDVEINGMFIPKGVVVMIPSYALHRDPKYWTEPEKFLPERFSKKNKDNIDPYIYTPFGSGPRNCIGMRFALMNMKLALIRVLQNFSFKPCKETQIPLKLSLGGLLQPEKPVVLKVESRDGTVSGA

[7] = tested on: INS1; experiment: beta cell apoptosis inhibitors, cytokine rescue, dose response, luminescence, retest (AID 449756); assay type: functional, cell-based; conditions: Rattus norvegicus;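 also: cell death triggered by IL-1 beta plus TNF-alpha plus IFN-gamma mixture; protective hits raise ATP signal compared with cytokine alone wells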
[8] = biological target: Cytochrome P450 2C9 (Homo sapiens, UniProt P11712)
Sequence of Cytochrome P450 2C9 (P11712 whole entry): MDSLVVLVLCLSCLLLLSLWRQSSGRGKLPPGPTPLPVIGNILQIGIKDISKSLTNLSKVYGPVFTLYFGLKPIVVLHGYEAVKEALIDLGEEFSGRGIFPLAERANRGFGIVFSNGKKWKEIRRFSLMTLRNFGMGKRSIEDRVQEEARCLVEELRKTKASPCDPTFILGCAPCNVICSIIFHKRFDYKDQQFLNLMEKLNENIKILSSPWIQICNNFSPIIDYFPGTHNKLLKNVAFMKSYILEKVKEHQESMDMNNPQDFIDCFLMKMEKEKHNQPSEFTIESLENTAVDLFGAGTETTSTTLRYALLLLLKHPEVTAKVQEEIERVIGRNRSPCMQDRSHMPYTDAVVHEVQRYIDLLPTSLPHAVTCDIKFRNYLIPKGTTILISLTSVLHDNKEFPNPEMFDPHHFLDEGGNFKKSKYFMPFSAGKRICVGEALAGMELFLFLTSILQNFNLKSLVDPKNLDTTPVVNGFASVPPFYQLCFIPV

[9] = C. albicans growth with fluconazole, confirmation, fluorescence, retest (AID 2467); assay type: functional, cell-based
[10] = NIH-3T3 fibroblast cytotoxicity, dose response, cytotoxicity control, cell-based, fluorescence, Alamar Blue, secondary assay (AID 2327); assay type: functional;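 also: NIH-3T3 mouse fibroblasts cultured with fluconazole at 8 µg/mL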
[11] = cytotoxicity toward NIH3T3 fibroblasts, dose response, counter-screen, cell-based, ATP luminescence, mouse fibroblasts (AID 2010); assay type: functional;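 also: cells exposed to compound for about 90 hours before reading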
[12] = inhibitors of intracellular T. cruzi replication, confirmation, NIH3T3 host cells, beta-gal luminescence (AID 2044); assay type: functional, cell-based;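 also: intracellular parasites grown in NIH/3T3 mouse fibroblasts as host cells; luminescent beta-galactosidase reporter signal from transgenic T. cruzi replicating inside host cells; inhibitors lower the luminescence signal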

COc1ccc(Nc2oc(COc3ccccc3F)nc2C#N)cc1
EC50 [1]: 2.44 µM (active)
AC50 [2]: 19.9 µM (active)

Cc1cccc(-c2cc3c(nn2)-c2ccccc2C3=O)c1
EC50 [3]: 0.897 µM (active)

COc1ncc2nc(CCc3ccccc3)c(=O)n(C)c2n1
AC50 [4]: 25.1 µM (inconclusive)
AC50 [5]: 20 µM (inconclusive)

N#Cc1cccc(-c2nc(NCc3ccccc3)c3ccccc3n2)c1
AC50 [6]: 20 µM (inconclusive)

CCCc1cc2c(n1Cc1cc(F)cc(F)c1)C(C)C1CN(C(=O)c3ccccc3)C(C)(C(=O)OC)C21 (centres undefined)
AC50 [4]: 39.8 µM (inconclusive)
AC50 [5]: 25.1 µM (inconclusive)

CCOC(=O)C1C(=O)NC(C)C1c1ccccc1 (centres undefined)
AC50 [4]: 31.6 µM (inconclusive)
AC50 [5]: 0.0501 µM (inconclusive)

CC(=O)N1N=C(c2ccccc2)CC1c1ccccc1[N+](=O)[O-] (centres undefined)
EC50 [3]: > 260 µM (inactive)

Cc1ccc[n+](CC(=O)Nc2ccc([N+](=O)[O-])cc2Cl)c1
EC50 [3]: > 260 µM (inactive)

CC(C)(C)c1ccc(NNC(=O)C2CCC2)cc1
AC50 [7]: 7.4 µM (active)

CCSc1nnc(NC(=O)c2cccnc2Cl)s1
EC50 [3]: > 260 µM (inactive)

CCN(c1ccccc1)S(=O)(=O)c1cc(NC(=O)Nc2ccccc2C#N)ccc1Cl
EC50 [3]: > 260 µM (inactive)

COc1ccc(COC(=O)N/N=C2/C[C@@H](O)[C@@H](O)[C@@H]3[C@@H]4C(=O)N([C@@H](C)c5ccccc5)C(=O)[C@H]4CC[C@@H]23)cc1
AC50 [6]: 3.98 µM (inconclusive)

COc1cc(/C=C/C(=O)O)cc(S(=O)(=O)NCCCO)c1OC
AC50 [8]: 10 µM (inconclusive)

CCOc1ccc(NC(=O)N(C2CCCCC2)C(C)c2ccncc2)cc1 (centres undefined)
AC50 [5]: 17.8 µM (inconclusive)

Cc1c(C(=O)NN)nn(-c2ccc(Cl)cc2)c(=O)c1C#N
EC50 [1]: 8.06 µM (active)
AC50 [2]: 79.8 µM (active)

Cc1cc(C)n(-c2ccc(C(=O)Nc3cc(C(F)(F)F)ccc3N3CCOCC3)cc2)n1
AC50 [4]: 10 µM (inconclusive)
AC50 [6]: 14.1 µM (inconclusive)

Cc1ccc(C(C)(O)CS(=O)(=O)Cc2ccccc2Cl)cc1 (centres undefined)
EC50 [3]: > 260 µM (inactive)

COc1ccc(NC(=O)c2cc(C)n(Cc3cccs3)c2C)cc1
EC50 [3]: 106 µM (inconclusive)

CCOC(=O)CNC(c1ccccc1)c1cc(Br)ccc1NC(=O)CCN1CCOCC1 (centres undefined)
EC50 [9]: 3.44 µM (active)
EC50 [10]: 39.4 µM (active)

O=C(Oc1cccc2cccnc12)c1cccc(N2C(=O)C3C4CCC(C4)C3C2=O)c1 (centres undefined)
AC50 [7]: 16.2 µM (active)

COc1ccc(/C=C2\N=C(SC)N(C)C2=O)cc1
AC50 [6]: 28.2 µM (inconclusive)

Cc1ccc(OCc2cc(C(=O)N(C)Cc3cc(C4CC4)[nH]n3)no2)cc1C
AC50 [7]: > 260 µM (inactive)

C=CCn1c(SCC)nc2sc3c(c2c1=O)CCc1ccccc1-3
AC50 [5]: 11.2 µM (inconclusive)

Cc1ccc(NC(=O)NCCCc2ccccc2)cc1
AC50 [6]: 7.94 µM (inconclusive)

NC(=O)CC12CC3CC(C1)CC(CC(N)=O)(C3)C2
EC50 [9]: > 38 µM (not active)
EC50 [10]: > 160 µM (inactive)

O=C(c1cc(Cl)c(=O)n(Cc2ccc(Cl)cc2)c1)N1CCOCC1
AC50 [6]: 28.2 µM (inconclusive)

Cc1ccc(O)c(-c2cc3ccccc3[nH]2)c1
EC50 [9]: > 38 µM (not active)
EC50 [10]: > 160 µM (inactive)

Cc1cc(O)c2n(Cc3ccccc3Cl)nc[n+]2n1
EC50 [3]: > 260 µM (inactive)

CC(=O)NC(c1ccco1)c1cc(F)c2cccnc2c1O (centres undefined)
AC50 [7]: 2.71 µM (active)

O=C(COc1ccccc1)Nc1cc(C(F)(F)F)ccc1N1CCCC1
AC50 [5]: 17.8 µM (inconclusive)

CCC(C)c1ccc(Nc2ncccc2C#N)cc1 (centres undefined)
AC50 [5]: 28.2 µM (inconclusive)

CS/C(=C\[N+](=O)[O-])Nc1ccc(Cl)cc1
EC50 [1]: 12.7 µM (active)
EC50 [9]: > 38 µM (not active)
EC50 [10]: > 150 µM (inconclusive)
AC50 [2]: 23.2 µM (active)

c1csc(CN2CCCC3(CCNCC3)C2)n1
AC50 [8]: 31.6 µM (inconclusive)

COCC(=O)N1CCC[C@@]2(CCN(Cc3nccs3)C2)C1
AC50 [6]: 20 µM (inconclusive)

Cc1nc2c(n1C1CCCCC1)C(=O)c1ccccc1C2=O
AC50 [5]: 22.4 µM (inconclusive)

c1ccc2c(CC3NCCN3)cccc2c1
AC50 [5]: 3.98 µM (inconclusive)

Oc1ccc2ccccc2c1/C=N\Cc1c(O)ccc2ccccc12
AC50 [5]: 3.98 µM (inconclusive)

CCc1nc(SCC(=O)c2ccc(Cl)s2)c2oc3ccccc3c2n1
EC50 [3]: 43.5 µM (active)

CCOC(=O)c1sc(C)c(C(=O)NCC(C)(C)CN(C)C)c1N
AC50 [8]: 39.8 µM (inconclusive)

Cc1nn(C(CC(=O)O)C(=O)O)c(C)c1Br (centres undefined)
EC50 [3]: > 260 µM (inactive)

CCCCCCC1CC(C)(/C(C)=N/NC(N)=O)OC1=O (centres undefined)
AC50 [6]: 17.8 µM (inconclusive)

CCn1c(C)c(/C=N/Nc2nc3ccccc3s2)c2ccccc21
EC50 [11]: > 60 µM (not active)
AC50 [5]: 14.1 µM (inconclusive)
EC50 [12]: 2.5 µM (active)

C/C(CC(=O)Nc1ccc(F)cc1)=N\NC(=O)COc1ccccc1
EC50 [1]: 3.72 µM (active)
AC50 [2]: 10.3 µM (active)

COc1cc(/C=N/NC(=O)c2cccs2)ccc1OCc1ccccc1
AC50 [6]: 15.8 µM (inconclusive)
